Test results: US20030113312A1, “Skin barrier function and cohesion through enhanced stratum corneum acidification” (The Regents of the University of California, priority 2001, published 2003)
Blank lines part the entries; values can stand above or below the compound they belong to.

What was measured:
[1] = target: T1, NHE1 antiporter (Homo sapiens, UniProt P19634); assay: Intracellular pH (BCECF) and recovery from acid load in cultured human keratinocytes; assay type: cell-based
T1 construct: endogenous in cells; host or cells: second passage cultured human keratinocytes from human foreskin (CHK)
T1 sequence (P19634 whole entry): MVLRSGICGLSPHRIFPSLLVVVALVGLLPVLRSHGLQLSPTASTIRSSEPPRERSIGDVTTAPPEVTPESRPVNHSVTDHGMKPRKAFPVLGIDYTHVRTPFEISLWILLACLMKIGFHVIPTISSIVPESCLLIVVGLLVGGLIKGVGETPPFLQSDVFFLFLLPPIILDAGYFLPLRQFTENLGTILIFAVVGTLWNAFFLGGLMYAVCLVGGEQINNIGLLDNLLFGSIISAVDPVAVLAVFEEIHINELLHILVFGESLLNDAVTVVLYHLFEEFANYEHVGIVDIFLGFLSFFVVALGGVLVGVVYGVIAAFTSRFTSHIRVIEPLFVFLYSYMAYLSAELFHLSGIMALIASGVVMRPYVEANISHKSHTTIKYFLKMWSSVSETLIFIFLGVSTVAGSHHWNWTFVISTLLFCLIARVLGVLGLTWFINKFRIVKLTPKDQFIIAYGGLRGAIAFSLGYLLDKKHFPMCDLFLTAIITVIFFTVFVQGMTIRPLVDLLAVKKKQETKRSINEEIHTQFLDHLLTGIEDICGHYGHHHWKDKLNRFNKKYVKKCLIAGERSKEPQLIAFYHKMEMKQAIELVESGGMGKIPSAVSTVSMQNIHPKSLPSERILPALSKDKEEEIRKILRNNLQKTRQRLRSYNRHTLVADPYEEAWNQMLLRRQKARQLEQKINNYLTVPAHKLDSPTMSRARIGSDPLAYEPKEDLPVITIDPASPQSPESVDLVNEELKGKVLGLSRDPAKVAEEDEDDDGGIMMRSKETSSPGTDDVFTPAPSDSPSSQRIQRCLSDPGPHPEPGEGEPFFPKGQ
Procedure: Assessment of Intracellular pH: Keratinocytes were plated on glass coverslips and grown in Cascade 154 medium containing 0.07 mM Ca^2+. The coverslips were incubated in 145 μM BCECF-AM ester at room temperature for 5 minutes, then rinsed for 30 minutes in buffer containing either 28 mM HEPES, 136 mM NaCl, 5 mM KCl, 0.07 mM CaCl2 and 10 mM glucose, pH 7.4 or Ringer solution (136 mM NaCl, 5 mM KCl, 0.03 mM Ca2+, 28 mM TES, 14 mM Na HCO3, NaOH to adjust the pH to 7.4, and 10 mM glucose (pH 7.4, 330 mOsm)). BCECF-AM-ester is membrane permeable; once inside cells it is de-esterified by endogenous […], trapping flourescently-active, acidic BCECF inside the cells. The BCECF-loaded cells were placed in a superfusion chamber mounted on a inverted microscope (Nikon). The keratinocytes were superfused with one of the two solutions, and baseline intracellular pH was monitored constantly using a ratiometric method (Paradiio et al (1987) Am J. Physiol. 253:C30-6). Briefly, BCECF loaded cells were alternately illuminated every 10 seconds with brief flashes (200 milliseconds) of 440 nm and 490 nm light. The resultant fluorescence (at 530 nm) from each stimulating wavelength was measured with a CCD camera (Hamamatsu) digitally ratioed, and stored using a software program (Fluor, Universal Imaging Co., West Chester, Pa.). Whereas fluorescence emission at 440 nm excitation remains constant, indicative of dye concentration, emission from 490 nm varies proportionally with changes intracellular pH. By ratioing the two signals, intracellular pH is measured as a brightness signal corrected for the intracellular dye concentration.
Calibration was performed at the end of each experiment by permeablizing the cells to protons with nigericin, thereby equilibrating intra- and extracellular pH. Superfusing the cells with solutions containing 85 mM NaCl, 50 mM KCl, 0.07 mM CaCl2, […] nigericin (a K^+/H^+ exchanger), and either 28 mM HEPES, or 28 mM TES bubbled with 5% CO2, pH 6.8 or 7.8, allowed to calibrate intracellular signals. […]

[2] = target: T2, NHE1 antiporter (Mus musculus, UniProt Q61165); assay: Stratum corneum surface pH after tape stripping with buffers with or without NHE1 inhibitor; assay type: in vivo
T2 construct: from tissue; host or cells: skin (epidermis / stratum corneum) of living hairless mice
T2 sequence (Q61165 whole entry): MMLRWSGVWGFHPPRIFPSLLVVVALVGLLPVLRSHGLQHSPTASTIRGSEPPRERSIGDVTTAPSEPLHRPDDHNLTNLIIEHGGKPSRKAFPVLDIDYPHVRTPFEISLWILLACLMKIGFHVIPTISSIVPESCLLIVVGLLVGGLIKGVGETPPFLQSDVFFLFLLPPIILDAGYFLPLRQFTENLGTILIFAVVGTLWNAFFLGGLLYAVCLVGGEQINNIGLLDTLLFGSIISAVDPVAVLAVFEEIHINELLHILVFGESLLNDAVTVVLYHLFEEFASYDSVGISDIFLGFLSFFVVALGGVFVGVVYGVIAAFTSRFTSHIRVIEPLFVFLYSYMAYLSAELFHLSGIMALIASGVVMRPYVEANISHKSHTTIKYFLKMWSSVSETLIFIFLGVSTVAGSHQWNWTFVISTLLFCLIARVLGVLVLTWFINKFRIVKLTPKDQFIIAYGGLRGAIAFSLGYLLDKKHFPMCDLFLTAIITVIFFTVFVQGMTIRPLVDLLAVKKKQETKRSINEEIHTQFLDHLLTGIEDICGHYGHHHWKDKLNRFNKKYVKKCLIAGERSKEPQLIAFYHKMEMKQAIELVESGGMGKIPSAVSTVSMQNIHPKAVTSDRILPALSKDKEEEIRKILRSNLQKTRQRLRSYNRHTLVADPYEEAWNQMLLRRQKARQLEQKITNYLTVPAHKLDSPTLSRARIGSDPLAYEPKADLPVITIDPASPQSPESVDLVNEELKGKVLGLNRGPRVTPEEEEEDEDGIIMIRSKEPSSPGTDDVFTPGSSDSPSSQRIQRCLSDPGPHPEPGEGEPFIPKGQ
Procedure: (§1) Permeability Barrier Studies: Normal hairless mice were treated topically twice a daily for three days with BPB (4 mg/mL) or MJ33 (4 mg/mL) both in propylene glycol:ethanol (7:3 v/v) vehicle, or the vehicle alone on an area of 5-6 cm on the backs and flanks as described previously (Mao-Qiang, M., et al., J. Lipid Res. 36:1926-35 (1995)). The doses employed were shown previously to be non-toxic to Murine skin (Mao-Qiang, M., et al. (1995); Mao-Qiang, M., et al., J. Invest. Dermatol. 106:57-63 (1996)), and to inhibit secretory phospholipase A2 (sPLA2) activity selectively in different cell types (Gelb, M. H., et al., Faseb J. 8:916-24 (1994); Jain, M. K., et al. (1991)). The acidification experiments were performed with 10 mM HEPES-buffer, adjusted to either pH 5.5 or pH 7.4 as follows: One flank of anesthetized mice was immersed on a mesh netting, as described previously (Lee, S. H., et al., J. Clin. Invest. 89:530-8 (1992)). The mice were anesthetized with chloral hydrate (Morton Grove Pharmaceuticals, Morton Grove, Ill., USA). After 3 hours immersion at 37° C., the mice were removed, and the remaining buffer was gently blotted off. After 15 minutes, barrier function was determined by measurement of transepidermal water loss (TEWL) with an electrolytic water analyzer (MEECO®, Warrington, Pa.). Surface pH was measured with a flat, glass surface electrode from Mettler-Toledo (Giessen, Germany), attached to a pH meter (Skin pH Meter PH 900, Courage & Khazaka, Cologne, Germany). Individually tested sites were covered with Hilltop Chambers (HtC, nominal volume […]), which were reapplied following each indvidual measurement.
(§2) The stratum corneum was removed by several strippings with adhesive tape (Tesa, Beiersdorf, Germany) inducing an increase in TEWL rates above baseline (from 0.2 to approximately 7-9 g/m^2/h). Two sites were prepared on each animal, and TEWL and surface pH were measured at 0, 2, 5 and 24 hrs following the stripping and the applications of inhibitors. Biopsies were taken for electron microscopy from treated and control sites, at 5 and 24 hours. For studies in the NHE1 knockout mice, homozygous (−/−) mice were compared to their wildtype (+/+) littermates. Flanks of these mice were shaved, and barrier homostasis was studied 48 hours later. For tape-stripping of these animals, D-Squame disks (Cu-derm, Dallas, Tex.) were used, as Tesa tape was too disruptive for application to shaved, hairy mouse skin.
To investigate the role of NHE 1 in maintaining the pH balance of the stratum corneum, the integrity of murine skin exposed to different buffers and NHE1 inhibitors, was disrupted by tape-stripping. The pH of the exposed skin was measured before and after tape-stripping. Before tape-stripping, the surface pH in all animals was acidic (6.03+/−0.20, n=78). […] At five hours post-tape-strip, these samples were still not fully recovered, remaining more than 0.05 pH units higher than the initial post-tape-strip values.

[3] = target: T2, NHE1 antiporter; assay: Barrier recovery (TEWL) after tape stripping; assay type: in vivo; settings: for kinetics of barrier recovery after tape-stripping: NHE1 inhibitors, topical, hairless mice
Procedure: as §1, §2
Hairless mice were tape stripped to TEWL of 7-9 g/m^2/h. […] Control areas were covered with Hilltop Chambers containing 10 mM HEPES buffer adjusted to pH 7.4 or pH 5.5 as appropriate. TEWL was measured at 0, 2, 5, and 24 hours post tape-strip. The results are reported as percent barrier recovery from the initial induced defect.

[4] = system: hairless mice skin (stratum corneum); assay: Electron microscopy of lamellar body secretion and extracellular lipid processing; assay type: in vivo, mouse; settings: EM of biopsies
Procedure: as §2
Ultrastructural methods: Freshly obtained biopsies from mouse skin were fixed directly in modified Karnovsky's fixative, postfixed with reduced osmium tetroxide (OS04) and then imbedded in an Epon-epoxy mixture. For visualization of lipid-enriched, lamellar bilayer structures, some samples were post fixed in ruthenium tetroxide (RuO4). Sections were cut on a Reichert Ultracut E microtome, counterstained with uranyl acetate and lead citrate, and viewed in a Zeiss 10 CR electron microscope, operated at 60 kV.
Biopsies were taken during time course experiments.

[5] = system: hairless mice skin (stratum corneum); assay: Skin surface pH after topical treatment or buffer exposure; assay type: in vivo, mouse; settings: free fatty acid co-applied with BPB for three days
Procedure: Animals: Male hairless mice (Skh1/Hr, Charles River Laboratories, Wilmington, Mass.), 8-12 weeks old, were fed Purina mouse diet and water ad libitum. […] Functional experiments were performed on animals aged 6-10 weeks.
The mice were anesthetized with chloral hydrate (Morton Grove Pharmaceuticals, Morton Grove, Ill., USA). After 3 hours immersion at 37° C., the mice were removed, and the remaining buffer was gently blotted off. After 15 minutes, barrier function was determined by measurement of transepidermal water loss (TEWL) with an electrolytic water analyzer (MEECO®, Warrington, Pa.). Surface pH was measured with a flat, glass surface electrode from Mettler-Toledo (Giessen, Germany), attached to a pH meter (Skin pH Meter PH 900, Courage & Khazaka, Cologne, Germany). Individually tested sites were covered with Hilltop Chambers (HtC, nominal volume 200 mL), which were reapplied following each indvidual measurement.

[6] = system: hairless mice skin (stratum corneum); assay: Stratum corneum integrity: TEWL after sequential tape stripping; assay type: in vivo, mouse; settings: for sPLA2 inhibitor induced abnormalities in stratum corneum integrity and cohesion: fatty acid co-applied with BPB or MJ33; for TEWL rate by the fifth strip: fatty acid co-applied with BPB for three days
Procedure: The mice were anesthetized with chloral hydrate (Morton Grove Pharmaceuticals, Morton Grove, Ill., USA). […] After 15 minutes, barrier function was determined by measurement of transepidermal water loss (TEWL) with an electrolytic water analyzer (MEECO®, Warrington, Pa.). […] Individually tested sites were covered with Hilltop Chambers (HtC, nominal volume 200 mL), which were reapplied following each indvidual measurement.

[7] = system: hairless mice skin (stratum corneum); assay: Stratum corneum cohesion: protein removed per D-Squame stripping; assay type: in vivo, mouse; settings: for cumulative protein loss at the fifth strip: fatty acid co-applied with BPB for three days
Procedure: Before stripping the stratum corneum, the skin surface was cleaned with a single ethanol wipe. D-Squame tapes then were placed sequentially to the test areas for about 3 sec each, removed with forceps, and stored in glass scintillation vials at 5° C.
The protein content per stripping was determined with the Bio-Rad protein assay kit. […] Each tape was incubated with 1 M NaOH for 1 hour at 37° C. in an incubator shaker at 80 rpm, and neutralized thereafter with 1 mL of 1 M HCl in the scintillation vials. Subsequently, 0.2 mL of this solution was incubated in 0.6 ml distilled water plus 0.2 mL of the Bio-Rad protein dye for 5 minutes in boroscillate tubes. […] An empty D-Squame tape, as well as distilled water incubated with Bio-Rad dye, served as negative controls. The amount of calculated protein was then normalized to skin surface area (μg/cm^2).

[8] = HOE694 in pH 7.4 buffer, two hours post tape strip
[9] = inhibitor in pH 7.4 buffer (amiloride 5 μM, HOE694 7.5 μM), two hours post tape-strip
[10] = inhibitor in pH 7.4 buffer, five hours post tape-strip
[11] = fatty acid co-applied with MJ33 for three days

- intracellular pH ([1]; 1.5 μM for 16 hours, dropped from pH 7.05): 6.90 pH
- initial post-tape-strip pH value vs pH 5.5 buffer alone ([2]; HOE694 in pH 5.5 buffer): increased significantly
- pH increase over the initial post-tape-strip value ([2]; HOE694 in pH 5.5 buffer, five hours post-tape-strip): more than 0.05 pH units
- pH increase over the initial post-tape-strip value ([2]; HOE694 in pH 5.5 buffer, two hours post-tape-strip): more than 0.1 pH units
- initial post-tape-strip pH value vs pH 7.4 buffer only ([2]; HOE694 in pH 7.4 buffer): similar
- elevated pH at five hours ([2]; HOE694 in pH 7.4 buffer, five hours post tape strip): persisted and even increased
- pH increase over the initial post-tape-strip value [2, 8]: > 0.1 pH unit
- pH increase over the two hour time point of pH 7.4 buffer alone [2, 8]: ~0.05 pH units
- percent barrier recovery (TEWL rate less than the initial induced rate) ([3]; HOE694 in pH 5.5 buffer, 2 hours post tape-strip): 25%
- percent barrier recovery (TEWL rate less than the initial induced rate) ([3]; HOE694 in pH 5.5 buffer, 5 hours post tape-strip): 38%
- percent barrier recovery (TEWL rate less than the initial induced rate) ([3]; HOE694 in pH 5.5 buffer, 24 hours post tape-strip): 75%
- kinetics of barrier recovery after tape-stripping [3]: delayed barrier recovery
- percent barrier recovery (TEWL rate less than the initial induced rate) [3, 9]: about 12%
- percent barrier recovery (TEWL rate less than the initial induced rate) ([3]; inhibitor in pH 7.4 buffer, 24 hours post tape-strip): about 45%
- percent barrier recovery (TEWL rate less than the initial induced rate) [3, 10]: 23%
Compound: CS(=O)(=O)c1cc(C(=O)NC(=N)N)ccc1N1CCCCC1 [HOE694, 3-methylsulfonyl-4-piperidino-benzoylguanidinemethanesulfonate]
- extracellular processing of secreted lipids ([4]; HOE694 in pH 5.5 buffer): appeared normal
- extracellular processing of secreted lipids ([4]; HOE694 in pH 7.4 buffer): defective
- lamellar body formation and secretion ([4]; HOE694 in pH 7.4 buffer): undisturbed

Compound: CCCCC/C=C\C/C=C\CCCCCCCC(=O)O [linoleic acid]
- pH of the stratum corneum [5]: 5.77+/−0.10
- sPLA2 inhibitor induced abnormalities in stratum corneum integrity and cohesion [6]: to a lesser extent

Compound: Cl.N [NH4Cl, ammonium chloride]
- intracellular pH response ([1]; NH4Cl added to cultures of CHK, initial alkalinization, then after dissociation of the ammonium ion): take on an acid load

- kinetics of barrier recovery after tape-stripping [3]: delayed barrier recovery
- percent barrier recovery (TEWL rate less than the initial induced rate) [3, 9]: about 12%
- percent barrier recovery (TEWL rate less than the initial induced rate) [3, 10]: about 25%
Compound: N=C(N)NC(=O)c1nc(Cl)c(N)nc1N [amiloride, N-Amido-3,5-diamino-6-chloropyrazinecarboxamide]
- effect after wash out period ([1]; cultured human keratinocytes, wash out of amiloride, recovery from the acid load): non-permanent, non-toxic effect

Compound: CCCCCCCCCCCCCCCC(=O)O [palmitic acid]
- pH of the stratum corneum [5]: 5.40+/−0.14
- TEWL rate by the fifth strip [6]: 55-60 g/m^2/h
- sPLA2 inhibitor induced abnormalities in stratum corneum integrity and cohesion [6]: prevented emergence
- TEWL rate after three sequential tape-strippings [6, 11]: 30-35 g/m^2/h
- cumulative protein loss at the fifth strip [7]: about 40 μg/cm^2
- loss of protein after three strippings [7, 11]: about 30 μg/cm^2

Compound: CCCCCCCCCCCCCCCCCC(=O)O [stearic acid]
- pH of the stratum corneum [5]: 5.73+/−0.09
- TEWL rate by the fifth strip [6]: about 25 g/m^2/h
- sPLA2 inhibitor induced abnormalities in stratum corneum integrity and cohesion [6]: prevented emergence
- cumulative protein loss at the fifth strip [7]: about 25 μg/cm^2
